Consider 1 compound from patent EP0264138B1, “Novel compound DC-102 and process for production thereof” (KYOWA HAKKO KOGYO CO., LTD., priority 1986, dated 1988).

In the assay the test system is lymphocytic leukemia P388. Nature of the assay: Therapeutical effect against lymphocytic leukemia P388. The format is in vivo, male CDF₁ mice. The following applies: dose 6 mg/kg intraperitoneally. The protocol: Five male CDF₁ mice each having a weight of about 22 g were used for each group as test animals, and 1 x 10⁶ cells of lymphocytic leukemia P388 were implanted intraperitoneally in the test animals. 24 hours after implantation, 0.2 mℓ of a phosphate buffer saline (hereinafter referred to as PBS) containing DC-102 was intraperitoneally administered. For comparison, 0.2 mℓ of PBS solution containing mitomycin C was intraperitoneally administered 24 hours after implantation of the tumor cells. The mean survival time (MST) after implantation and increased life span (ILS) represented by T/C (T: MST for test groups; C: MST for control group) are shown in Table 3.

As for `CO[C@@]12[C@H](COC(N)=O)C3=C(C(=O)C(C)=C(N)C3=O)N1C[C@@H]1N[C@@H]12` [Mitomycin C, mitomycin C], the MST (24 hours after implantation of 1 x 10⁶ P388 cells) was determined as 17.2 days. For the same compound, for the setting “T: MST for test groups, C: MST for control group”, the “ILS (T/C)” value is recorded as 166.
